These results are taken from publication PMC9995496, “A screen for MeCP2-TBL1 interaction inhibitors using a luminescence-based assay” (Scientific Reports, 2023).

The structures appear in SMILES notation. Counter-ions that a name gives are not always drawn. Like-named read-outs stand apart in the source and are kept apart here.

This assay concerns PRKACA-PRKAR2A interaction (SmBiT-PRKACA / LgBiT-PRKAR2A), protein kinase A. Also on record: NanoLuc complementation counter-screen in cell extract, PRKACA with PRKAR2A, loss of luminescence, detects NanoLuc interference. The conditions noted are these: counter-screen for NanoLuc interference, 0.5 h, 20 µM, inhibitor. For orientation: Counterscreens check selectivity or assay interference.

In the case of `COC(=O)C[C@H](NC(=O)[C@@H](NC(=O)c1ccc2ccccc2n1)C(C)C)C(=O)COc1c(F)cccc1F` [UM0141924:01, Q-VD(OMe)-OPh], the “Inh (PKA)” value is recorded as 13.3%.

Regarding `CO[C@H]1C[C@@H]2CC[C@@H](C)[C@@](O)(O2)C(=O)C(=O)N2CCCC[C@H]2C(=O)O[C@H]([C@H](C)C[C@@H]2CC[C@@H](O)[C@H](OC)C2)CC(=O)[C@H](C)/C=C(\C)[C@@H](O)[C@@H](OC)C(=O)[C@H](C)C[C@H](C)/C=C/C=C/C=C/1C` [UM0141925:01, Rapamycin (Sirolimus)], the “Inh (PKA)” value was 2.249%.

For `CCOC(=O)C1=C(N)Oc2ccc(Br)cc2[C@H]1[C@H](C#N)C(=O)OCC` [UM0141926:01, HA14-1], the “Inh (PKA)” value came out at 18.52%. With `CO[C@H]1C[C@@H]2CC[C@@H](C)[C@@](O)(O2)C(=O)C(=O)N2CCCC[C@H]2C(=O)O[C@H]([C@H](C)C[C@@H]2CC[C@@H](OCCO)[C@H](OC)C2)CC(=O)[C@H](C)/C=C(\C)[C@@H](O)[C@@H](OC)C(=O)[C@H](C)C[C@H](C)/C=C/C=C/C=C/1C` [UM0141927:01, Everolimus (RAD001)], the “Inh (PKA)” value came out at 0.7572%. On the same count and under the same terms, in the case of `CC(NC(=O)[C@H](Cc1ccccc1)NC(=O)OCc1ccccc1)C(=O)CF` (some centres unmarked) [UM0141928:01, Z-FA-FMK] it was 4.07%; in that of `Nc1ccccc1NC(=O)c1ccc(CNC(=O)OCc2cccnc2)cc1` [UM0141929:01, Entinostat (MS-275,SNDX-275)], 3.043%. `CC(C)CCCCC(=O)N[C@@H](CO)C(=O)N[C@@H](CC(C)C)C(=O)[C@@]1(CO)CO1` [UM0141930:01, Dihydroeponemycin]: the “Inh (PKA)” value was 3.421%.

Regarding `C/C=C1\NC(=O)[C@H]2CSSCC/C=C/[C@H](CC(=O)N[C@H](C(C)C)C(=O)N2)OC(=O)[C@H](C(C)C)NC1=O` [UM0141931:01, Romidepsin (FK228, depsipeptide)], the “Inh (PKA)” value was 2.202%. On the same count and under the same terms, then `CN(C(=O)c1cc2ccccc2cc1C(=O)C(c1cccc2ccccc12)P(=O)(O)O)C1CCN(C(=O)c2ccccc2)CC1` (centres unmarked) [UM0141932:01, Cathepsin G Inhibitor I], with 16.06%. `C=CCc1cccc(/C=N/NC(=O)CN2CCN(Cc3ccccc3)CC2)c1O` [UM0141933:01, PAC-1]: the “Inh (PKA)” value turned out to be 9.934%. Still for that read-out and setting: in the case of `CC(C)C[C@H](NC(=O)[C@H](CC(C)C)NC(=O)[C@H](CC(C)C)NC(=O)OCc1ccccc1)B(O)O` [UM0141934:01, MG-262] it was 2.364%. Same read-out and setting: in the case of `CN([C@@H](Cc1ccc(OS(=O)(=O)c2cccc3cnccc23)cc1)C(=O)N1CCN(c2ccccc2)CC1)S(=O)(=O)c1cccc2cnccc12` [UM0141935:01, KN-62] it was 9.099%; in that of `C[C@@]1(F)[C@H](O)[C@@H](CO)O[C@H]1n1ccc(=O)[nH]c1=O` [UM0141938:01, PSI-6206], 1.416%.

Take `CC(C)[C@H](O)C(=O)N[C@@H](C)C(=O)N[C@@H]1C(=O)N(C)CCc2ccccc21` [UM0141939:01, Semagacestat (LY450139)]: the “Inh (PKA)” value was -0.02723%.

Turning to `C[C@@H]1O[C@@H](CC(=O)O)CC2=C1C(=O)c1c(O)cccc1C2=O` [UM0141940:01, Nanaomycin A], the “Inh (PKA)” value stood at 18.84%. For the molecule `COc1cc2ncnc(Nc3cccc(Br)c3)c2cc1OC` [UM0141943:01, PD153035 hydrochloride], the “Inh (PKA)” value was determined as 18.98%. The same measure, in the same setting: then `CC(C)c1nc(CN(C)C(=O)N[C@H](C(=O)N[C@@H](Cc2ccccc2)C[C@H](O)[C@H](Cc2ccccc2)NC(=O)OCc2cncs2)C(C)C)cs1` [UM0141947:01, Ritonavir], with 6.592%; and `Cc1cccc(C)c1OCC(=O)N[C@@H](Cc1ccccc1)[C@@H](O)C[C@H](Cc1ccccc1)NC(=O)[C@H](C(C)C)N1CCCNC1=O` [UM0141948:01, Lopinavir], with 17.52%. In the case of `COC(=O)N[C@H](C(=O)N[C@@H](Cc1ccccc1)[C@@H](O)CN(Cc1ccc(-c2ccccn2)cc1)NC(=O)[C@@H](NC(=O)OC)C(C)(C)C)C(C)(C)C` [UM0141949:01, Atazanavir], for the setting “Inh (PKA)”, the “Inh (PKA)” value came out at 2.849%. Consider `CC(C)CN(C[C@@H](O)[C@H](Cc1ccccc1)NC(=O)O[C@H]1CO[C@H]2OCC[C@H]21)S(=O)(=O)c1ccc(N)cc1` [UM0141950:01, Darunavir], for which the “Inh (PKA)” value is on record as 4.833%.

With `COc1cc2c(cc1OC)CN(CCc1ccc(NC(=O)c3cc(OC)c(OC)cc3NC(=O)c3cnc4ccccc4c3)cc1)CC2` [UM0141951:01, Tariquidar], the “Inh (PKA)” value was 12.46%. The same measure, in the same setting: in the case of `N#CSc1cc(SC#N)c(N)nc1N` [UM0141952:01, PR-619] it was 19.82%; in that of `COc1ccc(CCC(=O)Nc2nc3ccc(Cl)cc3s2)cc1OC` [UM0141953:01, KY 02111], 9.326%.

For `COc1ccc(-c2ccc3c(N4CCOC[C@@H]4C)nc(N4CCOC[C@@H]4C)nc3n2)cc1CO` [UM0141954:01, AZD8055], the “Inh (PKA)” value came to 6.662%. The same measure, in the same setting: then `CC(C)(C)n1nc(-c2ccc(Cl)cc2)c2c(N)ncnc21` [UM0141956:01, PP 2 (AG 1879)], with 33.15%. The same measure, in the same setting: then `O=C(NCCCNc1nc(Nc2cccc(NC(=O)N3CCCC3)c2)ncc1I)c1cccs1` [UM0141957:01, BX795], with 37.99%; and `O=C(Nc1ccc(CN2CCOCC2)cc1)c1ccc(-c2cccc(Cl)c2)o1` [UM0141958:01, CID 2011756], with 20.99%.

In the case of `CCOC(=O)[C@@H](N)CCC(=O)N[C@@H](CSCc1ccccc1)C(=O)N[C@@H](C(=O)OCC)c1ccccc1` [UM0141959:01, Ezatiostat], the “Inh (PKA)” value (Inh (PKA)) is listed as 2.198%. As for `N#Cc1c(Oc2ccc(F)c(NC(=O)Cc3cccc(C(F)(F)F)c3)c2)ccc2nc(NC(=O)C3CC3)sc12` [UM0141960:01, TAK-632], the “Inh (PKA)” value was found to be 4.577%. Still for that read-out and setting: then `CC(=O)[C@]1(N)Cc2c(O)c3c(c(O)c2[C@@H](O[C@H]2C[C@H](O)[C@H](O)CO2)C1)C(=O)c1ccccc1C3=O` [UM0141961:01, Amrubicin], with 25.46%; and `c1ccc2c(Oc3nc(Nc4ccc(N5CCOCC5)cc4)c4ncn(C5CCCCC5)c4n3)cccc2c1` [UM0141962:01, Purmorphamine], with 11.44%; and `CCCC(=O)Nc1cccc(NC(=O)c2ccccc2Br)c1` [UM0141963:01, ML161], with 3.147%. Same read-out and setting: in the case of `Cc1ccc2c(=O)c3cccc(CC(=O)O)c3oc2c1C` [UM0141964:01, DMXAA (Vadimezan)] it was 2.691%; in that of `CNC(=O)c1cc(Oc2ccc(NC(=O)c3cccc(C(F)(F)F)c3)cc2)ccn1` [UM0141965:01, SKLB610], 8.796%.

`CCO[C@@H]1OC(=O)C[C@@H]1NC(=O)[C@@H]1CCCN1C(=O)[C@@H](NC(=O)c1ccc(N)c(Cl)c1)C(C)(C)C` [UM0141966:01, VX-765]: the “Inh (PKA)” value is reported as 0.4442%. The same measure, in the same setting: in the case of `CCCNC(=O)[C@H]1O[C@@H]1C(=O)N[C@H](C(=O)N1CCC[C@H]1C(=O)OC)[C@@H](C)CC` [UM0141967:01, CA-074 Me] it was -0.4464%; in that of `FC(F)c1nc2ccccc2n1-c1nc(N2CCOCC2)nc(N2CCOCC2)n1` [UM0141969:01, ZSTK474], 3.548%; in that of `NC(=O)c1ccc(-c2nc(-c3ccccn3)c(-c3ccc4c(c3)OCO4)[nH]2)cc1` [UM0141970:01, SB 431542], 22.36%. `COc1cc(N2CCC(N3CCN(C)CC3)CC2)ccc1Nc1ncc(Cl)c(Nc2ccccc2S(=O)(=O)C(C)C)n1` [UM0141971:01, TAE684 (NVP-TAE684)]: the “Inh (PKA)” value was found to be 23%. Take `COC(=O)c1ccc2c(c1)NC(=O)/C2=C(\Nc1ccc(N(C)C(=O)CN2CCN(C)CC2)cc1)c1ccccc1` [UM0141972:01, Nintedanib (BIBF 1120)]: the “Inh (PKA)” value is 17.71%. Still for that read-out and setting: in the case of `CCN(CC)CCNC(=O)c1c(C)[nH]c(/C=C2\C(=O)Nc3ccc(F)cc32)c1C` [UM0141973:01, Sunitinib malate] it was 55.62%. The same measure, in the same setting: then `Cc1cc(C)nc(NS(=O)(=O)c2ccc(NC(=S)NC(=O)COc3ccc(Br)cc3Cl)cc2)n1` [UM0141974:01, ZCL278], with 9.562%. Take `CN(C)CCCCC(=O)Nc1ccc(NC(=S)NC(=O)c2ccc(C(C)(C)C)cc2)cc1` [UM0141976:01, Tenovin-6]: the “Inh (PKA)” value came to 9.354%.

Consider `Cc1ccc(NC(=O)Nc2cc(C(F)(F)F)ccc2F)cc1Nc1ccc2c(c1)NC(=O)/C2=C\c1ccc[nH]1` [UM0141977:01, GNF-5837], for which the “Inh (PKA)” value came out at 11.58%. Same read-out and setting: in the case of `CNC(=O)c1ccc(C)c(-n2c(C)cc(OCc3ccc(F)cc3F)c(Br)c2=O)c1` [UM0141978:01, PH-797804] it was 5.099%.

For the molecule `CN(c1ncccc1CNc1nc(Nc2ccc3c(c2)CC(=O)N3)ncc1C(F)(F)F)S(C)(=O)=O` [UM0141980:01, PF-562271], where the note is “Inh (PKA)”, the “Inh (PKA)” value was found to be 55.16%.

Consider `CCC(=O)N1CCN(c2ccc(-n3c(=O)ccc4cnc5ccc(-c6cnc7ccccc7c6)cc5c43)cc2C(F)(F)F)CC1` [UM0141981:01, Torin 1], for which the “Inh (PKA)” value was 8.063%. Still for that read-out and setting: in the case of `Cn1c(Nc2ccc(C(F)(F)F)cc2)nc2cc(Oc3ccnc(-c4ncc(C(F)(F)F)[nH]4)c3)ccc21` [UM0141982:01, RAF265] it was 1.298%.

Turning to `CC(=O)c1c(C)c2cnc(Nc3ccc(N4CCNCC4)cn3)nc2n(C2CCCC2)c1=O` [UM0141983:01, PD 0332991 (Palbociclib) HCl], the “Inh (PKA)” value (Inh (PKA)) is 11.32%. Take `COc1cc2ncnc(Nc3ccc(F)c(Cl)c3)c2cc1NC(=O)/C=C/CN1CCCCC1` [UM0141985:01, Dacomitinib (PF299804, PF299)]: the “Inh (PKA)” value is reported as 10.53%. As for `CN(c1ncccc1CNc1nc(Nc2ccc3c(c2)CC(=O)N3)ncc1C(F)(F)F)S(C)(=O)=O` [UM0141986:01, PF-00562271], for the setting “Inh (PKA)”, the “Inh (PKA)” value is listed as 56.79%. Take `CCOc1cc2ncc(C#N)c(Nc3ccc(OCc4ccccn4)c(Cl)c3)c2cc1NC(=O)/C=C/CN(C)C` [UM0141987:01, Neratinib (HKI-272)]: the “Inh (PKA)” value came to 9.342%. Same read-out and setting: in the case of `CCC[C@H](NC(=O)/C(C#N)=C/c1cccc(Br)n1)c1ccccc1` [UM0141988:01, WP1130] it was 8.904%.
